The text below walks through data of patent US20100022457A1 (Bristol-Myers Squibb Company, priority 2006, published 2010).

Where two headings read alike, the source gives them in different places. Where a SMILES comes first, the peptide text is derived from it. [ ]: non-standard residue; d: D form. Ala(6-(2-MePh)pyridin-3-yl) = Cc1ccccc1-c1ccc(C[C@H](N)C(=O)O)cn1; Bip(2'-Et-4'-OMe) = CCc1cc(OC)ccc1-c1ccc(C[C@H](N)C(=O)O)cc1; αMePhe(2-F) = C[C@](N)(Cc1ccccc1F)C(=O)O; Aib = CC(C)(N)C(=O)O

The subject of one data set is C57BL/6J-ob/ob mice. In words: Intraperitoneal glucose tolerance test (ipGTT) in ob/ob mice after subcutaneous injection. It is filed as in vivo, mouse. The protocol:
Peptides were dissolved in an appropriate vehicle at a concentration in nmol/ml equivalent to the dose that was to be administered in nmol/kg so that each mouse would receive the same volume/weight of dosing solution. Male C57BL/6J-ob/ob mice (10 weeks old) were randomized into groups of 6 mice per group based on fed plasma glucose and body weight. After an overnight fast, mice were weighed and placed in the experimental lab. After 30 min in the environment, the mice were bled via tail tip at −30 min and immediately injected subcutaneously (sc) with vehicle or the peptide dissolved in vehicle (0.1 ml solution/100 g body weight). At time 0 the mice were bled and then injected intraperitoneally with 50% glucose (2 g/kg) to initiate the intraperitoneal glucose tolerance test (ipGTT). The mice were bled 30, 60, 120 and 180 min after the glucose injection. Blood samples were drawn into potassium EDTA, placed on ice during the study and subsequently centrifuged for 10 min at 3000 rpm at 4° C. Plasma samples were diluted 1-fold for glucose analysis in the Cobas System. Another 5 μl plasma sample was diluted 5-fold with 20 μl of Sample Diluent (Insulin ELISA assay kit, Crystal Chem Inc.) and stored at −20° C. for subsequent analysis using the Ultra Sensitive Mouse Insulin ELISA kit (Crystal Chem Inc.).

Data set [1] in a line: Exposure during ipGTT in ob/ob mice. The data set is classed as in vivo, mouse. As to conditions: sc.
Data set [2] is described as follows: Dog pharmacokinetic study (intravenous and subcutaneous, 67 μg/kg). The data set is classed as in vivo. The note with it: for half-life: read-out: t1/2 (converted). The protocol:
The pharmacokinetic parameters of the compound of SEQ ID NO:9 were determined in male beagle dogs (n=4, 14±1 kg). Following an overnight fast, each animal received the compound of SEQ ID NO:9 either as an intravenous bolus via femoral vein (67 μg/kg) or by subcutaneous injection given at near the shoulder blades (67 μg/kg). Each animal received both intravenous and subcutaneous doses with a one-week washout between doses following a crossover design. […] Serial blood samples were collected in EDTA-containing microcentrifuge tubes at predose, 0.083, 0.25, 0.5, 0.75, 1, 2, 4, 6, 8, 24, and 30 hours post-dose after intravenous administration; at predose, 0.25, 0.5, 0.75, 1, 2, 4, 6, 8, 24, and 30 hours post-dose after subcutaneous administration. Approximately 0.3 mL of blood was collected at each time point. Blood samples were immediately centrifuged at 4° C. The obtained plasma was frozen with dry ice and stored at −20° C. Plasma drug levels were determined using the LC-MS/MS assay described above.
Plasma samples from in vivo dog study were prepared for analysis by precipitating plasma proteins with two volumes of acetonitrile containing an internal standard. The samples were vortex mixed and removed the precipitated proteins by centrifugation. The resulting supernatants were transferred to a 96-well plate and 10 μL were injected for analysis. Samples were prepared with the Packard Multiprobe II and Quadra 96 Liquid Handling System.
The HPLC system consisted of two Shimadzu LC10AD pumps (Columbia, Md.), a CTC PAL autosampler (Leap Technologies, Switzerland). The column used was a YMC Hydrosphere C18 (2.0×50 mm, 3 μm) (YMC, Inc., Milford, Mass.). The column temperature was maintained at 50° C. and the flow rate was 0.3 mL/minute. The mobile phase A consisted of 10 mM ammonium formate and 0.1% formic acid in water and mobile phase B consisted of 0.1% formic acid in acetonitrile. The initial mobile phase composition was 5% B, and remained at 5% B for one minute to equilibrate the column. The composition was ramped to 95% B over two minutes and held there for one additional minute. The mobile phase was then returned to initial conditions in one minute. Total analysis time was five minutes. A switching valve was used. The eluents between 0-1 minute were diverted to the waste.
The HPLC was interfaced to a Sciex API 4000 mass spectrometer, (Applied Biosystems, Foster City, Calif.) and was equipped with a TurboIonspray ionization source. Ultra high purity nitrogen was used as the nebulizing and turbo gas. The temperature of turbo gas was set at 300° C. and the interface heater was set at 60° C. Data acquisition utilized selected reaction monitoring (SRM). Ions representing the (M+2H)^2+ species for the compound of SEQ ID NO:9, and (M+2H)^2+ for BMS-501143 (IS) were selected in Q1 and were collisionally dissociated with high purity nitrogen at a pressure of 3.5×10^−3 torr to form specific product ions which were subsequently monitored by Q3.
The standard curve concentrations, ranging from 1 to 1000 nM and from 4 to 5000 nM, were used for the in vivo samples obtained from low and high doses, respectively. The curves were fitted with a quadratic regression weighted by reciprocal […]. Standards were analyzed in duplicate. Quality control (QC) samples, prepared in blank matrix at the same concentrations as the standard were also analyzed in each analytical set. For the compound of SEQ ID NO:9, the calculated concentrations of more than 80% of the QCs were within 20% of nominal concentration, indicating acceptable assay performance.
The compound of SEQ ID NO:9 plasma concentration vs. time data were analyzed by noncompartmental methods using the […]™ software program. The Cmax and Tmax values were recorded directly from experimental observations. The AUC0-n and AUCtot values were calculated using a combination of linear and log trapezoidal summations. […]

Data set [3] can be described thus: Solubility of protamine/Compound of SEQ ID NO:9 adduct and in protamine solution. The data set is classed as physicochemical. The source says:
Thus, the administration of the protamine/Compound of SEQ ID NO:9 adduct may need a suitable suspending agent; or it maybe injected as dry powder.
Therefore, suspension of the compound of SEQ ID NO:9 in the presence of protamine could still provide extended release effect without using pre-formed protamine/SEQ ID NO:9 adduct.

Setting [4] is: male, beagle, plasma, 67 ug/kg, dog, intravenous 67 μg/kg, propylene glycol:phosphate buffer (50:50).
Setting [5] is: male, beagle, plasma, sc, 67 ug/kg, dog, subcutaneous 67 μg/kg, propylene glycol:phosphate buffer (50:50).

Take `CCc1cc(OC)ccc1-c1ccc(C[C@H](NC(=O)[C@H](CC(=O)O)NC(=O)[C@H](CO)NC(=O)[C@@H](NC(=O)[C@](C)(Cc2ccccc2F)NC(=O)[C@@H](NC(=O)CNC(=O)[C@H](CCC(=O)O)NC(=O)C(C)(C)NC(=O)[C@@H](N)Cc2c[nH]cn2)[C@@H](C)O)[C@@H](C)O)C(=O)N[C@@H](Cc2ccc(-c3ccccc3C)nc2)C(N)=O)cc1` [SEQ ID NO: 9] (H-H[Aib]EGT[αMePhe(2-F)]TSD[Bip(2'-Et-4'-OMe)][Ala(6-(2-MePh)pyridin-3-yl)]-NH2): the “Potency in ob/ob mice: % AUC Reduction in Plasma Glucose in an IP Glucose Tolerance Test after SC Injection of Compound” value in the data set on C57BL/6J-ob/ob mice (10 nmol/kg sc, relative to vehicle-treated group) is recorded as −68% (p < 0.0001). In addition, in the data set with C57BL/6J-ob/ob mice (30 nmol/kg sc, ipGTT ob/ob mice), the “maximum increase in postprandial insulin AUC” value came to 187.7%. Further, the “plasma glucose AUC decrease” value in the data set on C57BL/6J-ob/ob mice (100 nmol/kg sc, ipGTT ob/ob mice) was determined as 85.8%. The “effect on postprandial plasma glucose” value in the data set with C57BL/6J-ob/ob mice (sc in ob/ob mice, between 0 and 180 or 210 minutes) was “statistically significant decrease”. Besides, the “Potency in ob/ob mice ED50” value in the data set on C57BL/6J-ob/ob mice (sc injection, plasma glucose AUC in ipGTT) came out at 5 nmol/kg. In addition, the “Exposure/dose during ipGTT in ob/ob mice” value in data set [1] was found to be 18 nM*h/nmol/kg. Also, the “Exposure in dogs (sc@67 μg/kg)” value in data set [2] (Table I, vehicle 0.2 M Tris buffer (pH 8.0)) came to 0.452 µM·h. For the same compound, the “Exposure in dogs (sc@67 μg/kg)” value in data set [2] (Table II, vehicle propylene glycol/pH 7.4 phosphate buffer (1:1)) is 1.23 µM·h. The “Vss as % of extracellular fluid” value in data set [2] (dog, extracellular fluid 0.14 L/kg) is given as 71 % of extracellular fluid. Further, in data set [2] (dog, liver blood flow 31 mL/min/kg), the “systemic clearance as % of liver blood flow” value is on record as 3.2 % of liver blood flow. Besides, the “Vss as times of vascular fluid” value in data set [2] (dog, vascular fluid 0.05 L/kg) is reported as 2 times of vascular fluid. Moreover, in data set [2] (setting [4]), the AUC was determined as 1.27 ± 0.299 µM·h, the MRT was 3 ± 1 h and the half-life is 5.1 ± 0.5 h. In addition, in data set [2] (male, beagle, plasma, 67 ug/kg, dog, intravenous 67 μg/kg, propylene glycol:phosphate buffer (50:50), read-out: CLp), the clearance was determined as 0.6 ± 0.1 mL/min/kg. Further, the Vd in data set [2] (male, beagle, plasma, 67 ug/kg, dog, intravenous 67 μg/kg, propylene glycol:phosphate buffer (50:50), read-out: VSS) is 0.1 ± 0.03 L/kg. In data set [2] (setting [5]), the AUC was found to be 1.22 ± 0.276 µM·h, the MRT amounted to 12.5 ± 2.4 h, the Tmax was found to be 5 ± 1 h and the half-life was 6.9 ± 1.3 h. In addition, the Cmax in data set [2] (male, beagle, plasma, sc, 67 ug/kg, dog, subcutaneous 67 μg/kg, text of b538, read-out: maximum plasma concentration (Cmax)) was 90 ± 29 nM. The clearance in data set [2] (male, beagle, whole blood, 67 ug/kg, dog, intravenous 67 μg/kg, propylene glycol:phosphate buffer (50:50), read-out: CLB (systemic clearance)) came to 0.9 ± 0.2 mL/min/kg. The compound also had a solubility in data set [3] (MeOH) above 50 mg/mL. For the same compound, the “solubility as a function of protamine in the solution” value in data set [3] (pH 6.8, 50 mM PB buffer) is “decreases with increase of protamine in the solution”.
